Results reported in US12233047B2, “Pharmaceutical combination and use thereof” (ASCENTAGE PHARMA (SUZHOU) CO., LTD., priority 2019, dated 2025).
Positions count from the first letter of the chain named.

How the values were obtained:
FLT3 (wild type) = target: T1, FLT3 (wild type) (Homo sapiens, UniProt P36888); experiment: KINOMEscan kinase binding assay, FLT3 (wild type); settings: lower % Ctrl = stronger binding
T1 construct: host or cells: T7 phage in E. coli (BL21-derived) or HEK-293
T1 sequence (P36888 27-993): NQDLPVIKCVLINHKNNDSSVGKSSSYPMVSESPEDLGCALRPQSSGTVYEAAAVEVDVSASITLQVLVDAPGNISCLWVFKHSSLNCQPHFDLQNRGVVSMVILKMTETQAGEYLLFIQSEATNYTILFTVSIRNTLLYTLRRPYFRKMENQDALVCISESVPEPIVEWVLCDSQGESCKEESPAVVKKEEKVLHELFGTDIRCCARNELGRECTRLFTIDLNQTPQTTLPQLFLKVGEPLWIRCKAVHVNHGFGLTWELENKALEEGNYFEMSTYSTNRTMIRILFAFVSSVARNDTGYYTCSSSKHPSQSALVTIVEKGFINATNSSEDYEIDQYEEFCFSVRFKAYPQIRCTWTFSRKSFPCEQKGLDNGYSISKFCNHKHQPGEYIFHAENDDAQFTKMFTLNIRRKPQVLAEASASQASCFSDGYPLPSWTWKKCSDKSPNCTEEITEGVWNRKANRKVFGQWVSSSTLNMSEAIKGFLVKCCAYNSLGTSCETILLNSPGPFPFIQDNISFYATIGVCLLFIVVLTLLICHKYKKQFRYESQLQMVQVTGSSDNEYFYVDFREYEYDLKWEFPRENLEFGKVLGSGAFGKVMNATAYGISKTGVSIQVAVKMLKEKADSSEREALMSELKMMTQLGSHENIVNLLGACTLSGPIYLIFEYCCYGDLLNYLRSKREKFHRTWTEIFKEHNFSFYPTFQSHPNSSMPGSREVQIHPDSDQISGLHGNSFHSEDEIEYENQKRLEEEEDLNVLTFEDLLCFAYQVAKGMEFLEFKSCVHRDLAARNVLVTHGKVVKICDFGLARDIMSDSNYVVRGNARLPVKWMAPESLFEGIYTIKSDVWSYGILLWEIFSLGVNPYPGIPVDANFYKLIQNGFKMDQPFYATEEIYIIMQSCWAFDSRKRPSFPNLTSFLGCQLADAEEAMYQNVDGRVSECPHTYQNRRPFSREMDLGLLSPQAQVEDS
Description: (§1) The kinase assay was conducted using KINOMEscan™.
(§2) Kinase-tagged T7 phage strains were grown in parallel in 24-well blocks in an E. coli host derived from the BL21 strain. E. coli were grown to log-phase and infected with T7 phage from a frozen stock (multiplicity of infection=0.4) and incubated with shaking at 32° C. until lysis (90-150 minutes). The lysates were centrifuged (6,000×g) and filtered (0.2 μm) to remove cell debris. The remaining kinases were produced in HEK-293 cells and subsequently tagged with DNA for qPCR detection. Streptavidin-coated magnetic beads were treated with biotinylated small molecule ligands for 30 minutes at room temperature to generate affinity resins for kinase assays. The liganded beads were blocked with excess biotin and washed with blocking buffer (SeaBlock (Pierce), 1% BSA, 0.05% Tween 20, 1 mM DTT) to remove unbound ligand and to reduce non-specific phage binding. Binding reactions were assembled by combining kinases, liganded affinity beads, and test compound (Compound 23) in 1× binding buffer (20% SeaBlock, 0.17×PBS, 0.05% Tween 20, 6 mM DTT). Test compound were prepared as 40× stocks in 100% DMSO and directly diluted into the assay. All reactions were performed in polypropylene 384-well plates in a final volume of 0.04 ml. […] The kinase concentration in the eluates was measured by qPCR. […]

FLT3 (D835H) = target: T2, FLT3 (D835H) (Homo sapiens, UniProt P36888, D835H); experiment: KINOMEscan kinase binding assay, FLT3 (D835H)
T2 construct: host or cells: T7 phage in E. coli (BL21-derived) or HEK-293
T2 sequence (P36888 27-993 D835H): T1 sequence (P36888 27-993) with D809H
Description: as §1, §2

## Cc1ccc(C(=O)Nc2ccc(CN3CCN(C)CC3)c(C(F)(F)F)c2)cc1C#Cc1cnc2[nH]ncc2c1 [Compound 23, 3-(2-(1H-pyrazolo[3,4-b]pyridin-5-yl)ethynyl)-4-methyl-N-(4-((4-methylpiperazin-1-yl)methyl)-3-(trifluoromethyl)phenyl)benzamide]
FLT3 (wild type); 10 nM
  % Ctrl@10 nM: 2.4 % Ctrl
FLT3 (wild type); 100 nM
  % Ctrl@100 nM: 0.75 % Ctrl
FLT3 (D835H); 10 nM
  % Ctrl@10 nM: 18 % Ctrl
FLT3 (D835H); 100 nM
  % Ctrl@100 nM: 2.2 % Ctrl
